In paper PMC7587962, “Evaluation of Cytotoxicity and α-Glucosidase Inhibitory Activity of Amide and Polyamino-Derivatives of Lupane Triterpenoids” (Molecules, 2020):

Experiments:
A549/ATCC = experiment: NCI-60 SRB screen: non-small cell lung cancer A549/ATCC; assay type: cell-based, human; details: A549/ATCC
HCC-2998 = experiment: NCI-60 SRB screen: colon cancer HCC-2998; assay type: cell-based, human; details: HCC-2998
SK-MEL-28 = experiment: NCI-60 SRB screen: melanoma SK-MEL-28; assay type: cell-based, human; details: SK-MEL-28
Ovarian Cancer subpanel = experiment: NCI-60 screen, subpanel Ovarian Cancer
OVCAR-8 = experiment: NCI-60 SRB screen: ovarian cancer OVCAR-8; assay type: cell-based, human; details: OVCAR-8
HCT-15 = experiment: NCI-60 SRB screen: colon cancer HCT-15; assay type: cell-based, human; details: HCT-15
UACC-62 = experiment: NCI-60 SRB screen: melanoma UACC-62; assay type: cell-based, human; details: UACC-62
SNB-19 = experiment: NCI-60 SRB screen: CNS cancer SNB-19; assay type: cell-based, human; details: SNB-19
HCT-116 = experiment: NCI-60 SRB screen: colon cancer HCT-116; assay type: cell-based; details: Homo sapiens, 48 h, HCT-116
SK-MEL-2 = experiment: NCI-60 SRB screen: melanoma SK-MEL-2; assay type: cell-based, human; details: SK-MEL-2
SN12C = experiment: NCI-60 SRB screen: renal cancer SN12C; assay type: cell-based, human
SF-268 = experiment: NCI-60 SRB screen: CNS cancer SF-268; assay type: cell-based, human; details: SF-268
HOP-62 = experiment: NCI-60 SRB screen: non-small cell lung cancer HOP-62; assay type: cell-based, human; details: HOP-62
CCRF-CEM = experiment: NCI-60 SRB screen: leukemia CCRF-CEM; assay type: cell-based; details: Homo sapiens, 48 h
CNS cancer subpanel = experiment: NCI-60 screen, subpanel CNS cancer
SR = experiment: NCI-60 SRB screen: leukemia SR; assay type: cell-based; details: Homo sapiens, 48 h
U251 = experiment: NCI-60 SRB screen: CNS cancer U251; assay type: cell-based; details: Homo sapiens, U251
NCI-H522 = experiment: NCI-60 SRB screen: non-small cell lung cancer NCI-H522; assay type: cell-based, human; details: NCI-H522
SW-620 = experiment: NCI-60 SRB screen: colon cancer SW-620; assay type: cell-based; details: Homo sapiens, 48 h, SW-620
M14 = experiment: NCI-60 SRB screen: melanoma M14; assay type: cell-based, human; details: M14
SF-295 = experiment: NCI-60 SRB screen: CNS cancer SF-295; assay type: cell-based, human; details: SF-295
SK-MEL-5 = experiment: NCI-60 SRB screen: melanoma SK-MEL-5; assay type: cell-based, human; details: SK-MEL-5
TK-10 = experiment: NCI-60 SRB screen: renal cancer TK-10; assay type: cell-based, human; details: TK-10
HS 578T = experiment: NCI-60 SRB screen: breast cancer HS 578T; assay type: cell-based, human; details: HS 578T
MCF7 = experiment: NCI-60 SRB screen: breast cancer MCF7; assay type: cell-based; details: Homo sapiens, 48 h, MCF7
NCI-H226 = experiment: NCI-60 SRB screen: non-small cell lung cancer NCI-H226; assay type: cell-based, human; details: NCI-H226
OVCAR-4 = experiment: NCI-60 SRB screen: ovarian cancer OVCAR-4; assay type: cell-based; details: Homo sapiens; OVCAR-4; five concentrations, 48 h, SRB; read-out: GI50
MDA-MB-468 = experiment: NCI-60 SRB screen: breast cancer MDA-MB-468; assay type: cell-based, human
SNB-75 = experiment: NCI-60 SRB screen: CNS cancer SNB-75; assay type: cell-based, human; details: SNB-75
DU-145 = experiment: NCI-60 SRB screen: prostate cancer DU-145; assay type: cell-based, human; details: DU-145
UO-31 = experiment: NCI-60 SRB screen: renal cancer UO-31; assay type: cell-based, human; details: UO-31
786-0 = experiment: NCI-60 SRB screen: renal cancer 786-0; assay type: cell-based, human; details: 786-0
[1] = tested on: 60 human tumor cell lines; details: single dose 10 µM
LOX IMVI = experiment: NCI-60 SRB screen: melanoma LOX IMVI; assay type: cell-based, human
IGROV1 = experiment: NCI-60 SRB screen: ovarian cancer IGROV1; assay type: cell-based, human; details: IGROV1
RPMI-8226 = experiment: NCI-60 SRB screen: leukemia RPMI-8226; assay type: cell-based; details: Homo sapiens, 48 h, RPMI-8226
[2] = Homo sapiens, five concentrations, 48 h, SRB, read-out: GI50
[3] = single dose 10 µM, read-out: Percentage Cell Growth
[4] = five concentrations, SRB, read-out: GI50

`C=C(C)[C@@H]1CC[C@]2(C(=O)NCCNCCNCCN)CC[C@]3(C)[C@H](CC[C@@H]4[C@@]5(C)CCC(=O)C(C)(C)[C@@H]5CC[C@]43C)[C@@H]12` [Compound 11] was tested, and the “Percentage Cell Growth” value (A549/ATCC; single dose 10 µM) was −76.50%, the GI50 (A549/ATCC; [2]) was 7.69 µM and the “Percentage Cell Growth” value (HCC-2998; single dose 10 µM) was −90.04%. The GI50 (HCC-2998; [2]) was 7.16 µM, the GI50 (SK-MEL-28; [2]) was 8.49 µM and the “Percentage Cell Growth” value (SK-MEL-28; single dose 10 µM) was −73.91%. The “MID b, average sensitivity of all cell line of particular subpanel” value (Ovarian Cancer subpanel) was 8.24 µM, the “Selectivity, ratio MID a: MID b” value (Ovarian Cancer subpanel) was 1.11 and the GI50 (OVCAR-8; [2]) was 8.41 µM. The “Percentage Cell Growth” value (OVCAR-8; single dose 10 µM) was −75.03%, the “Percentage Cell Growth” value (HCT-15; single dose 10 µM) was −36.56% and the GI50 (HCT-15; [2]) was 7.65 µM. The GI50 (UACC-62; [2]) was 8.96 µM, the “Percentage Cell Growth” value (UACC-62; single dose 10 µM) was −77.94% and the GI50 (SNB-19; [2]) was 8.5 µM. The “Percentage Cell Growth” value (SNB-19; single dose 10 µM) was −78.54%, the activity at 10 µM (HCT-116; [3]) was -80.7% and the GI50 (HCT-116; [4]) was 6.65 µM. The GI50 (SK-MEL-2; [2]) was > 50 µM, the “Percentage Cell Growth” value (SK-MEL-2; single dose 10 µM) was 56.36% and the GI50 (SN12C; [2]) was 7.56 µM. The “Percentage Cell Growth” value (SN12C; single dose 10 µM) was −88.48%, the GI50 (SF-268; [2]) was 7.53 µM and the “Percentage Cell Growth” value (SF-268; single dose 10 µM) was −38.68%. For the same compound, the “Percentage Cell Growth” value (HOP-62; single dose 10 µM) was 43.09%, the GI50 (HOP-62; [2]) was 7.91 µM and the activity at 10 µM (CCRF-CEM; [3]) was -11.3%. The GI50 (CCRF-CEM; [4]) was 9.65 µM, the “MID b, average sensitivity of all cell line of particular subpanel” value (CNS cancer subpanel) was 7.76 µM and the “Selectivity, ratio MID a: MID b” value (CNS cancer subpanel) was 1.18. The activity at 10 µM (SR; [3]) was 4.96%, the GI50 (SR; [4]) was 5.91 µM and the activity at 10 µM (U251; U-251, 48 h, single dose 10 µM, read-out: Percentage Cell Growth) was -81.8%. For the same compound, the GI50 (U251; U-251, five concentrations, 48 h, SRB, read-out: GI50) was 7.34 µM, the GI50 (NCI-H522; [2]) was 8.72 µM and the “Percentage Cell Growth” value (NCI-H522; single dose 10 µM) was −69.70%. For the same compound, the activity at 10 µM (SW-620; [3]) was -76.7%, the GI50 (SW-620; [4]) was 7.91 µM and the GI50 (M14; [2]) was 8.38 µM. For the same compound, the “Percentage Cell Growth” value (M14; single dose 10 µM) was −62.82%, the GI50 (SF-295; [2]) was 9.42 µM and the “Percentage Cell Growth” value (SF-295; single dose 10 µM) was −54.47%. For the same compound, the GI50 (SK-MEL-5; [2]) was 6.98 µM, the “Percentage Cell Growth” value (SK-MEL-5; single dose 10 µM) was −86.18% and the GI50 (TK-10; [2]) was 10.1 µM. For the same compound, the “Percentage Cell Growth” value (TK-10; single dose 10 µM) was −77.68%, the “Percentage Cell Growth” value (HS 578T; single dose 10 µM) was 47.76% and the GI50 (HS 578T; [2]) was 8.3 µM. For the same compound, the activity at 10 µM (MCF7; [3]) was -58%, the GI50 (MCF7; [4]) was 7.38 µM and the GI50 (NCI-H226; [2]) was 7.74 µM. For the same compound, the “Percentage Cell Growth” value (NCI-H226; single dose 10 µM) was 74.30%, the GI50 (OVCAR-4) was 7.39 µM and the GI50 (MDA-MB-468; [2]) was 8.09 µM. The “Percentage Cell Growth” value (MDA-MB-468; single dose 10 µM) was −49.06%, the GI50 (SNB-75; [2]) was 6.26 µM and the “Percentage Cell Growth” value (SNB-75; single dose 10 µM) was −41.55%. For the same compound, the “Percentage Cell Growth” value (DU-145; single dose 10 µM) was −56.67%, the GI50 (DU-145; [2]) was 7.47 µM and the GI50 (UO-31; [2]) was 6.85 µM. The “Percentage Cell Growth” value (UO-31; single dose 10 µM) was −96.35%, the “Percentage Cell Growth” value (786-0; single dose 10 µM) was −84.46% and the GI50 (786-0; [2]) was 7.8 µM. The “cancer cell lethality, range of percentage growth” value ([1]; cell lines with negative growth) was −4.36% to −96.35%, the “cases of cancer cell lethality” value ([1]; number of cell lines) was 50 and the GI50 (LOX IMVI; [2]) was 8.72 µM. For the same compound, the “Percentage Cell Growth” value (LOX IMVI; single dose 10 µM) was −68.23%, the GI50 (IGROV1; Homo sapiens, IGROV-1, five concentrations, 48 h, SRB, read-out: GI50) was 6.42 µM and the “Percentage Cell Growth” value (IGROV1; single dose 10 µM) was −84.81%. It also gave an activity at 10 µM (RPMI-8226; [3]) of -30.7% and a GI50 (RPMI-8226; [4]) of 6.78 µM.
